# Where a name gives a salt, the structure may show the parent alone. Read-outs that look alike come from different tables or passages of the source.
# What was measured:
# α2A-AR = target: T1, α2A-AR (Rattus norvegicus, UniProt P22909); type: cell-based; settings: for pKb (equilibrium dissociation constant, Schild x-intercept): antagonizing EPI-induced reduction of epileptiform burst discharges
# T1 sequence (P22909 1-465): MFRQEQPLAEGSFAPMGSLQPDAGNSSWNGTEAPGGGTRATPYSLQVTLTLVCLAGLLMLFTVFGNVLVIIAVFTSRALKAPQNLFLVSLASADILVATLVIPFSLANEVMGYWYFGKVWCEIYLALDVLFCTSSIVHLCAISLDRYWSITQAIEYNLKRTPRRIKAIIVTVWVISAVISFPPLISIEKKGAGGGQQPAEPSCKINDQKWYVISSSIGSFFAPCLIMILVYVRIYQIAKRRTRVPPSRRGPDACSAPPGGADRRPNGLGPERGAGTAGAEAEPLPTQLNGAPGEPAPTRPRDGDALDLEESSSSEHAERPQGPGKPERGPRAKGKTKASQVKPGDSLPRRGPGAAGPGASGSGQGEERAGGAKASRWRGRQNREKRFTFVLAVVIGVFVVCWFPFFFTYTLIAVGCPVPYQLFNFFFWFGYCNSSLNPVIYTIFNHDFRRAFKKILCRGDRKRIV
# pyramidal cells = settings: modulation of α2A-AR, data not shown
# human 5-HT1A = settings: published pEC50, ref Table S3; cited from earlier work
# [1] = test system: human α2A-AR versus α2B- or α2C-AR; settings: published EC50 for cloned human α2-ARs, ref Table S3; cited from earlier work
smiles,measurement,setting,value
COc1ccccc1N1CCN(CCN2C(=O)c3ccccc3C(C)(C)C2=O)CC1 [ARC-239],"pKb (equilibrium dissociation constant, Schild x-intercept)",α2A-AR,6.14
CC1c2ccccc2CN1CC1=NCCN1 (centres unmarked) [BRL-44408],"pKb (equilibrium dissociation constant, Schild x-intercept)",α2A-AR,7.81
"CNC[C@H](O)c1ccc(O)c(O)c1 [EPI, epinephrine]",hyperpolarization of pyramidal cells,pyramidal cells,does not hyperpolarize pyramidal cells
CN1CCN(c2ccc(Nc3c4ccccc4nc4ccccc34)cc2)CC1 [JP-1302],"pKb (equilibrium dissociation constant, Schild x-intercept)",α2A-AR,5.23
CN1CC[C@]2(CCN3CCc4c(oc5ccccc45)[C@@H]3C2)N(C)C1=O [MK-912],"pKb (equilibrium dissociation constant, Schild x-intercept)",α2A-AR,8.32
CCS(=O)(=O)N1CCC[C@@H]2CN3CCc4cc(OC)ccc4[C@@H]3C[C@@H]21 [RS-79948],parallel rightward shift of the control EPI concentration-response curve,α2A-AR; 3 nM RS-79948,4 fold
same,parallel rightward shift of the control EPI concentration-response curve,α2A-AR; 10 nM RS-79948,13 fold
same,parallel rightward shift of the control EPI concentration-response curve,α2A-AR; 30 nM RS-79948,34 fold
same,"pKb (equilibrium dissociation constant, Schild x-intercept)",α2A-AR,9.00 ± 0.16
same,Schild regression slope,α2A-AR; dose ratios of EPI EC50,0.95 ± 0.11
COC1(C2=NCCN2)COc2ccccc2O1 (centres unmarked) [RX-821002],"pKb (equilibrium dissociation constant, Schild x-intercept)",α2A-AR,8.87
Brc1c(NC2=NCCN2)ccc2nccnc12 [UK-14304],lower potency towards 5-HT1A compared with the α2A-AR,human 5-HT1A,"1,000 fold"
same,greater potency at α2A-ARs than α2B- or α2C-ARs,[1],10 fold
COc1cccc(OC)c1OCCNCC1COc2ccccc2O1 (centres unmarked) [WB-4101],"pKb (equilibrium dissociation constant, Schild x-intercept)",α2A-AR,7.34
"Cc1cccc([C@H](C)c2cnc[nH]2)c1C [dexmedetomidine, dexmedetomidine hydrochloride]",α2-AR subtype selectivity in words,[1],no subtype selectivity
"CCC1(C2=NCCN2)Cc2ccccc2O1 (centres unmarked) [efaroxan, efaroxan hydrochloride]",Kb,α2A-AR,3.72 nM
"N=C(N)N/N=C/c1c(Cl)cccc1Cl [guanabenz, guanabenz acetate]",Kb,α2A-AR,39.8 nM
